The text below walks through data of patent US20150252047A1, “SUBSTITUTED INDAZOL-PYRROLOPYRIMIDINES USEFUL IN THE TREATMENT OF HYPERPROLIFERATIVE DISEASES” (BAYER PHARMA AKTIENGESELLSCHAFT, priority 2012, published 2015).

Structures are written as SMILES. Some results are limits rather than exact numbers.

For the assay, the target named is T1, human full-length MKNK1 (Homo sapiens, UniProt Q9BUB5, T385D).
T1 construct: GST (N); purchased Carna Biosciences 02-145; host or cells: insect cells (baculovirus expression system)
T1 sequence (Q9BUB5 1-424 isoform Q9BUB5-2 T344D): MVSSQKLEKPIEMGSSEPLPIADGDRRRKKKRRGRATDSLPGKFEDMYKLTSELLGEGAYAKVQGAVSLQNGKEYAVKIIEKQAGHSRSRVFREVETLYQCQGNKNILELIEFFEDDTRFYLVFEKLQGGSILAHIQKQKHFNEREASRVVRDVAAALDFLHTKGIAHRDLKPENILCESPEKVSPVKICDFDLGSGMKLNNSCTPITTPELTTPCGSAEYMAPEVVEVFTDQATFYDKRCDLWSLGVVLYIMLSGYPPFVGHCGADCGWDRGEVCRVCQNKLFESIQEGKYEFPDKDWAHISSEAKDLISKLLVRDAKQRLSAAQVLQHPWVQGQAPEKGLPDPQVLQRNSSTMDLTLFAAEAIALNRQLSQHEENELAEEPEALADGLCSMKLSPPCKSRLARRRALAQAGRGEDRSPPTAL
The assay can be described thus: MKNK1 kinase high ATP assay (TR-FRET). The assay is classed as biochemical. The conditions noted are these: high ATP (2 mM final), 15 min preincubation with enzyme, 30 min reaction at 22° C. The procedure: MKNK1-inhibitory activity at high ATP of compounds of the present invention after their preincubation with MKNK1 was quantified employing the TR-FRET-based MKNK1 high ATP assay as described in the following paragraphs.
A recombinant fusion protein of Glutathione-S-Transferase (GST, N-terminally) and human full-length MKNK1 (amino acids 1-424 and T344D of accession number BAA 19885.1), expressed in insect cells using baculovirus expression system and purified via glutathione sepharose affinity chromatography, was purchased from Carna Biosciences (product no 02-145) and used as enzyme. As substrate for the kinase reaction the biotinylated peptide biotin-Ahx-IKKRKLTRRKSLKG (C-terminus in amide form) was used, which can be purchased e.g. from the company Biosyntan (Berlin-Buch, Germany).
For the assay 50 nL of a 100 fold concentrated solution of the test compound in DMSO was pipetted into a black low volume 384 well microtiter plate (Greiner Bio-One, Frickenhausen, Germany), 2 μL of a solution of MKNK1 in aqueous assay buffer [50 mM HEPES pH 7.5, 5 mM MgCl2, 1.0 mM dithiothreitol, 0.005% (v/v) Nonidet-P40 (Sigma)] was added and the mixture was incubated for 15 min at 22° C. to allow pre-binding of the test compounds to the enzyme before the start of the kinase reaction. Then the kinase reaction was started by the addition of 3 μL of a solution of adenosine-tri-phosphate (ATP, 3.3 mM=>final conc. in the 5 μL assay volume is 2 mM) and substrate (0.1 μM=>final conc. in the 5 μL assay volume is 0.06 μM) in assay buffer and the resulting mixture was incubated for a reaction time of 30 min at 22° C. The concentration of MKNK1 was adjusted depending of the activity of the enzyme lot and was chosen appropriate to have the assay in the linear range, typical concentrations were in the range of 0.003 μg/mL. The reaction was stopped by the addition of 5 μL of a solution of TR-FRET detection reagents (5 nM streptavidine-XL665 [Cisbio Bioassays, Codolet, France] and 1 nM anti-ribosomal protein S6 (pSer236)-antibody from Invitrogen [#44921G] and 1 nM LANCE EU-W1024 Labeled ProteinG [Perkin-Elmer, product no. AD0071]) in an aqueous EDTA-solution (100 mM EDTA, 0.1% (w/v) bovine serum albumin in 50 mM HEPES pH 7.5).
The resulting mixture was incubated for 1 h at 22° C. to allow the formation of complex between the phosphorylated biotinylated peptide and the detection reagents. Subsequently the amount of phosphorylated substrate was evaluated by measurement of the resonance energy transfer from the Eu-chelate to the streptavidine-XL. Therefore, the fluorescence emissions at 620 nm and 665 nm after excitation at 350 nm were measured in a TR-FRET reader, e.g. a Rubystar (BMG Labtechnologies, Offenburg, Germany) or a Viewlux (Perkin-Elmer). The ratio of the emissions at 665 nm and at […] was taken as the measure for the amount of phosphorylated substrate. The data were normalised (enzyme reaction without inhibitor=0% inhibition, all other assay components but no enzyme=100% inhibition).
In general terms: In TR-FRET formats the signal depends on donor and acceptor labels being close together.
Compound `CC(C)Oc1cc2[nH]ncc2cc1Nc1ncnc2[nH]cc(C(=O)N(C)C)c12` [Example 30, N,N-Dimethyl-4-{[6-(propan-2-yloxy)-1H-indazol-5-yl]amino}-7H-pyrrolo[2,3-d]pyrimidine-5-carboxamide] came in with an IC50 of 141 nM.

`CC(C)NC(=O)c1c[nH]c2ncnc(Nc3cc4cn[nH]c4cc3OC(C)C)c12` [Example 31, N-(Propan-2-yl)-4-{[6-(propan-2-yloxy)-1H-indazol-5-yl]amino}-7H-pyrrolo[2,3-d]pyrimidine-5-carboxamide] showed a concentration for half-maximal inhibition (IC50) of 94 nM.

The compound `CC(C)Oc1cc2[nH]ncc2cc1Nc1ncnc2[nH]c(C#CCO)cc12` [Example 32, 3-(4-{[6-(Propan-2-yloxy)-1H-indazol-5-yl]amino}-7H-pyrrolo[2,3-d]pyrimidin-6-yl)prop-2-yn-1-ol] showed an IC50 of 14 nM.

Consider `CC(C)Oc1cc2[nH]ncc2cc1Nc1ncnc2[nH]c(CCCO)cc12` [Example 33, 3-(4-{[6-(Propan-2-yloxy)-1H-indazol-5-yl]amino}-7H-pyrrolo[2,3-d]pyrimidin-6-yl)propan-1-ol], for which 35 nM corresponded to half-maximal inhibition (IC50).

`CC(C)Oc1cc2[nH]ncc2cc1Nc1ncnc2[nH]cc(C#N)c12` [Example 34, 4-[(6-Isopropoxy-1H-indazol-5-yl)amino]-7H-pyrrolo[2,3-d]pyrimidine-5-carbonitrile] registered a half-maximal inhibitory concentration (IC50) of 2 nM.

Compound `COc1cc2[nH]ncc2cc1Nc1ncnc2[nH]cc(C#N)c12` [Example 35, 4-[(6-Methoxy-1H-indazol-5-yl)amino]-7H-pyrrolo[2,3-d]pyrimidine-5-carbonitrile] registered an IC50 of 1 nM.

`CC(C)Oc1cc2[nH]ncc2cc1Nc1ncnc2[nH]c(Br)cc12` [Example 36, 6-Bromo-N-[6-(propan-2-yloxy)-1H-indazol-5-yl]-7H-pyrrolo[2,3-d]pyrimidin-4-amine] registered an IC50 of 34 nM.

With `COc1cc2[nH]ncc2cc1Nc1ncnc2[nH]c(C)cc12` [Example 37, N-(6-Methoxy-1H-indazol-5-yl)-6-methyl-7H-pyrrolo[2,3-d]pyrimidin-4-amine], the IC50 stood at 23 nM.

Regarding `Cc1c[nH]c2ncnc(Nc3cc4cn[nH]c4cc3OC(C)C)c12` [Example 38, 5-Methyl-N-[6-(propan-2-yloxy)-1H-indazol-5-yl]-7H-pyrrolo[2,3-d]pyrimidin-4-amine], it took 1 nM to reach half-maximal inhibition (IC50).

On to `COc1cc2[nH]ncc2cc1Nc1ncnc2[nH]cc(C)c12` [Example 39, N-(6-Methoxy-1H-indazol-5-yl)-5-methyl-7H-pyrrolo[2,3-d]pyrimidin-4-amine], for which it took 1 nM to reach half-maximal inhibition (IC50).

For the compound `CC(C)Oc1cc2[nH]ncc2cc1Nc1ncnc2[nH]c(Cl)cc12` [Example 40, 6-Chloro-N-[6-(propan-2-yloxy)-1H-indazol-5-yl]-7H-pyrrolo[2,3-d]pyrimidin-4-amine], the IC50 amounted to 29 nM.

Compound `COc1cc2[nH]ncc2cc1Nc1ncnc2[nH]c(Cl)cc12` [Example 41, 6-Chloro-N-(6-methoxy-1H-indazol-5-yl)-7H-pyrrolo[2,3-d]pyrimidin-4-amine] yielded an IC50 of 21 nM.

`CCOC(=O)c1cc2c(Nc3cc4cn[nH]c4cc3OC)ncnc2[nH]1` [Example 42, Ethyl 4-[(6-methoxy-1H-indazol-5-yl)amino]-7H-pyrrolo[2,3-d]pyrimidine-6-carboxylate] returned an IC50 of 3 nM.

On to `N#Cc1n[nH]c2ccc(Nc3ncnc4[nH]ccc34)cc12` [Example 43, 5-(7H-Pyrrolo[2,3-d]pyrimidin-4-ylamino)-1H-indazole-3-carbonitrile], for which the IC50 came out at 1340 nM.

As to `CCOc1cc2[nH]ncc2cc1Nc1ncnc2[nH]c(CC)c(C)c12` [Example 44, N-(6-Ethoxy-1H-indazol-5-yl)-6-ethyl-5-methyl-7H-pyrrolo[2,3-d]pyrimidin-4-amine], the IC50 came to 3 nM.

In turn, `CCCc1[nH]c2ncnc(Nc3cc4cn[nH]c4cc3OC(C)C)c2c1CC` [Example 45, 5-Ethyl-N-[6-(propan-2-yloxy)-1H-indazol-5-yl]-6-propyl-7H-pyrrolo[2,3-d]pyrimidin-4-amine] displayed an IC50 of 21 nM.

In turn, `CCCc1[nH]c2ncnc(Nc3cc4cn[nH]c4cc3OC)c2c1CC` [Example 46, 5-Ethyl-N-(6-methoxy-1H-indazol-5-yl)-6-propyl-7H-pyrrolo[2,3-d]pyrimidin-4-amine] returned an IC50 of 2 nM.

`CCOC(=O)c1[nH]c2ncnc(Nc3cc4cn[nH]c4cc3OC)c2c1Br` [Example 47, Ethyl 5-bromo-4-[(6-methoxy-1H-indazol-5-yl)amino]-7H-pyrrolo[2,3-d]pyrimidine-6-carboxylate] displayed an IC50 of less than 1 nM.

`COc1cc2[nH]ncc2cc1Nc1ncnc2[nH]c(C(=O)O)c(Br)c12` [Example 48, 5-Bromo-4-[(6-methoxy-1H-indazol-5-yl)amino]-7H-pyrrolo[2,3-d]pyrimidine-6-carboxylic acid]: the half-inhibitory concentration (IC50) is less than 1 nM.

Regarding `COc1cc2[nH]ncc2cc1Nc1ncnc2[nH]cc(C(F)(F)F)c12` [Example 49, N-(6-Methoxy-1H-indazol-5-yl)-5-(trifluoromethyl)-7H-pyrrolo[2,3-d]pyrimidin-4-amine], the IC50 came to 16 nM.

Compound `COc1cc2[nH]ncc2cc1Nc1ncnc2[nH]c(S(=O)(=O)c3ccccc3)cc12` [Example 50, N-(6-Methoxy-1H-indazol-5-yl)-6-(phenylsulfonyl)-7H-pyrrolo[2,3-d]pyrimidin-4-amine] registered an IC50 of less than 1 nM.

Turning to `COc1cc2[nH]ncc2cc1Nc1ncnc2[nH]c(S(=O)(=O)c3ccc(C)cc3)cc12` [Example 51, N-(6-Methoxy-1H-indazol-5-yl)-6-[(4-methylphenyl)sulfonyl]-7H-pyrrolo[2,3-d]pyrimidin-4-amine], the concentration for half-maximal inhibition (IC50) worked out at 1 nM.

In the case of `CC(C)Oc1cc2[nH]ncc2cc1Nc1ncnc2[nH]c(S(=O)(=O)c3ccccc3)cc12` [Example 52, 6-(Phenylsulfonyl)-N-[6-(propan-2-yloxy)-1H-indazol-5-yl]-7H-pyrrolo[2,3-d]pyrimidin-4-amine], the IC50 was 2 nM.

The compound `Cc1ccc(S(=O)(=O)c2cc3c(Nc4cc5cn[nH]c5cc4OC(C)C)ncnc3[nH]2)cc1` [Example 53, 6-[(4-Methylphenyl)sulfonyl]-N-[6-(propan-2-yloxy)-1H-indazol-5-yl]-7H-pyrrolo[2,3-d]pyrimidin-4-amine] displayed an IC50 of 2 nM.

The compound `CC(C)Oc1cc2[nH]ncc2cc1Nc1ncnc2[nH]c(S(C)(=O)=O)cc12` [Example 54, 6-(Methylsulfonyl)-N-[6-(propan-2-yloxy)-1H-indazol-5-yl]-7H-pyrrolo[2,3-d]pyrimidin-4-amine] yielded an IC50 of 37 nM.

`Fc1cc2[nH]ncc2cc1Nc1ncnc2[nH]c(Br)cc12` [Example 55, 6-Bromo-N-(6-fluoro-1H-indazol-5-yl)-7H-pyrrolo[2,3-d]pyrimidin-4-amine] returned an IC50 of 98 nM.

Regarding `COc1cc2[nH]ncc2cc1Nc1ncnc2[nH]c(CC(C)C)c(C(C)C)c12` [Example 56, N-(6-Methoxy-1H-indazol-5-yl)-6-(2-methylpropyl)-5-(propan-2-yl)-7H-pyrrolo[2,3-d]pyrimidin-4-amine], the IC50 came to 1 nM.

`CCc1c[nH]c2ncnc(Nc3cc4cn[nH]c4cc3OC)c12` [Example 57, 5-Ethyl-N-(6-methoxy-1H-indazol-5-yl)-7H-pyrrolo[2,3-d]pyrimidin-4-amine] had an IC50 of 1 nM.

Compound `COc1cc2[nH]ncc2cc1Nc1ncnc2[nH]c(C(=O)N3CCOCC3)c(Br)c12` [Example 58, {5-Bromo-4-[(6-methoxy-1H-indazol-5-yl)amino]-7H-pyrrolo[2,3-d]pyrimidin-6-yl}(morpholin-4-yl)methanone] yielded an IC50 of 2 nM.

The compound `COc1cc2[nH]ncc2cc1Nc1ncnc2[nH]c(C(=O)N(C)C)c(Br)c12` [Example 59, 5-Bromo-4-[(6-methoxy-1H-indazol-5-yl)amino]-N,N-dimethyl-7H-pyrrolo[2,3-d]pyrimidine-6-carboxamide] gave an IC50 of 1 nM.

`COc1cc2[nH]ncc2cc1Nc1ncnc2[nH]c(C(=O)N3CCCCC3)c(Br)c12` [Example 60, {5-Bromo-4-[(6-methoxy-1H-indazol-5-yl)amino]-7H-pyrrolo[2,3-d]pyrimidin-6-yl}(piperidin-1-yl)methanone] showed an IC50 of 2 nM.

In general, IC50 refers to the concentration that gives 50% inhibition.
